From patent publication US9062078B2, “Substituted 7-azabicyles and their use as orexin receptor modulators” (priority 2013, dated 2015)
Like-named read-outs stand apart in the source and are kept apart here.

Columns and labels:
[1] = molecular target: human orexin 2 receptor (Homo sapiens (Human), UniProt O43614); assay: Human orexin 2 receptor radioligand binding (competitive, [3H]-EMPA, HEK293 cell preparations)
[2] = molecular target: rat orexin 1 receptor (Rattus norvegicus, UniProt P56718); assay: Rat orexin 1 receptor radioligand binding (competitive, [3H]-SB674042, HEK293 cell preparations)
[3] = molecular target: human orexin 1 receptor (Homo sapiens (Human), UniProt O43613); assay: Human orexin 1 receptor radioligand binding (competitive, [3H]-SB674042, CHO cell preparations)
[4] = human orexin 2 receptor, [3H]-EMPA competition binding, read-out: hOX2 Ki (nm)
[5] = rat orexin 1 receptor, [3H]-SB674042 competition binding, read-out: rOX1 Ki (nm)
[6] = human orexin 1 receptor, [3H]-SB674042 competition binding, read-out: hOX1 Ki (nm)

Sequence of human orexin 2 receptor (O43614 whole entry): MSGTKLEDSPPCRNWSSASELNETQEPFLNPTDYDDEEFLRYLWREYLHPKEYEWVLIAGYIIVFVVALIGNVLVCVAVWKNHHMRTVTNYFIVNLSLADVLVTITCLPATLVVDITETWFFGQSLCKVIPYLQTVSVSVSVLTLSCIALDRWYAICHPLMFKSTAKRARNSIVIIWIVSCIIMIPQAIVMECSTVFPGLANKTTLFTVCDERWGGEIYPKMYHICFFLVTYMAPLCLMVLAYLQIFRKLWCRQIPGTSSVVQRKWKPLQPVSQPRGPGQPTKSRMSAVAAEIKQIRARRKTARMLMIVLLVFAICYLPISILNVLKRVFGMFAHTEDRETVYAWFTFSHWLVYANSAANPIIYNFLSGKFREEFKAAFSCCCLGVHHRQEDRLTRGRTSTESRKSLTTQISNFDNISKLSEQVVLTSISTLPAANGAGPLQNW
Sequence of human orexin 1 receptor (O43613 whole entry): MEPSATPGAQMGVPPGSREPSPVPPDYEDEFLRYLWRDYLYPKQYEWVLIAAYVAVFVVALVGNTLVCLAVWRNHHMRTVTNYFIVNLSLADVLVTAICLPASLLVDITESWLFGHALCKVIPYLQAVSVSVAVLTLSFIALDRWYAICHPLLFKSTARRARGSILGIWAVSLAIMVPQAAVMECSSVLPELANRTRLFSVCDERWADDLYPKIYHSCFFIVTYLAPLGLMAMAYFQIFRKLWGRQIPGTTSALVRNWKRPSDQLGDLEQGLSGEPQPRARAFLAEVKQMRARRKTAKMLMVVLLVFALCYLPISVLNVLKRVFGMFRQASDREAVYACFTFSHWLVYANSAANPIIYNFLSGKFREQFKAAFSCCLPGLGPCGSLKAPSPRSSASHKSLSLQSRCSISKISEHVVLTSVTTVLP

Row | SMILES | Ki [1, 4] | Ki [2, 5] | Ki [3, 6] | Ki ([1]; hOX2 Ki (nm)) | Ki ([2]; rOX1 Ki (nm)) | Ki ([3]; hOX1 Ki (nm))
1 | Cc1ccnc(C(=O)N2C3CCC2C(COc2ccccn2)C3)c1-n1nccn1 (racemic) [Example 72, (±)-(4-methyl-3-(2H-1,2,3-triazol-2-yl)pyridin-2-yl)(2-((pyridin-2-yloxy)methyl)-7-azabicyclo[2.2.1]heptan-7-yl)methanone] | 2400 nM | 137 nM | 162 nM | – | – | –
2 | CCOc1ccc2cccnc2c1C(=O)N1C2CCC1C(COc1ccccn1)C2 (racemic) [Example 75, (±)-(7-ethoxyquinolin-8-yl)(2-((pyridin-2-yloxy)methyl)-7-azabicyclo[2.2.1]heptan-7-yl)methanone] | 220 nM | 18 nM | 7 nM | – | – | –
3 | Cn1cc(-c2ccccc2)c(C(=O)N2C3CCC2C(COc2ccccn2)C3)n1 (racemic) [Example 77, (±)-(1-methyl-4-phenyl-1H-pyrazol-3-yl)(2-((pyridin-2-yloxy)methyl)-7-azabicyclo[2.2.1]heptan-7-yl)methanone] | – | 103 nM | 66 nM | 867 nM | – | –
4 | COc1ccc2cccnc2c1C(=O)N1C2CCC1C(COc1ccccn1)C2 (racemic) [Example 88, (±)-(7-methoxyquinolin-8-yl)(2-((pyridin-2-yloxy)methyl)-7-azabicyclo[2.2.1]heptan-7-yl)methanone] | 690 nM | 47 nM | 49 nM | – | – | –
5 | CCOc1ccc2ccccc2c1C(=O)N1C2CCC1C(COc1ccccn1)C2 (racemic) [Example 89, (±)-(2-ethoxynaphthalen-1-yl)(2-((pyridin-2-yloxy)methyl)-7-azabicyclo[2.2.1]heptan-7-yl)methanone] | 38 nM | 11 nM | 10 nM | – | – | –
6 | Cc1nc(C(=O)N2C3CCC2C(COc2ccccn2)C3)c(-c2ccccc2)s1 (racemic) [Example 92, (±)-(2-methyl-5-phenylthiazol-4-yl)(2-((pyridin-2-yloxy)methyl)-7-azabicyclo[2.2.1]heptan-7-yl)methanone] | 218 nM | – | – | – | 20 nM | 11 nM
7 | Cc1ccc(-c2ncco2)c(C(=O)N2C3CCC2C(COc2ccccn2)C3)n1 (racemic) [Example 93, (±)-(6-methyl-3-(oxazol-2-yl)pyridin-2-yl)(2-((pyridin-2-yloxy)methyl)-7-azabicyclo[2.2.1]heptan-7-yl)methanone] | – | 40 nM | 73 nM | 836 nM | – | –
8 | Cc1cc(-c2ccc(C)nc2C(=O)N2C3CCC2C(COc2ccccn2)C3)on1 (racemic) [Example 94, (±)-(6-methyl-3-(3-methylisoxazol-5-yl)pyridin-2-yl)(2-((pyridin-2-yloxy)methyl)-7-azabicyclo[2.2.1]heptan-7-yl)methanone] | 2100 nM | 170 nM | 200 nM | – | – | –
9 | Cc1cnn(-c2ccc(C)nc2C(=O)N2C3CCC2C(COc2ccccn2)C3)c1 (racemic) [Example 96, (±)-(6-methyl-3-(4-methyl-1H-pyrazol-1-yl)pyridin-2-yl)(2-((pyridin-2-yloxy)methyl)-7-azabicyclo[2.2.1]heptan-7-yl)methanone] | 950 nM | 70 nM | 76 nM | – | – | –
10 | Cc1ccc(N2CCCC2)c(C(=O)N2C3CCC2C(COc2ccccn2)C3)n1 (racemic) [Example 97, (±)-(6-methyl-3-(pyrrolidin-1-yl)pyridin-2-yl)(2-((pyridin-2-yloxy)methyl)-7-azabicyclo[2.2.1]heptan-7-yl)methanone] | 840 nM | 35 nM | 32 nM | – | – | –
11 | COc1cccc(-n2nccn2)c1C(=O)N1C2CCC1C(COc1ccc(F)cn1)C2 (racemic) [Example 108, (±)-(2-(((5-fluoropyridin-2-yl)oxy)methyl)-7-azabicyclo[2.2.1]heptan-7-yl)(2-methoxy-6-(2H-1,2,3-triazol-2-yl)phenyl)methanone] | 12 nM | 10 nM | 12 nM | – | – | –
